According to patent publication US7196115B2, “Pharmaceutical composition containing brevifoliol for use in chemotherapeutic treatment of human beings, method therefor” (Council of Scientific and Industrial Research, priority 2002, dated 2007):
Values after ≈ are worked out from the molar mass of the structure shown. Where two headings read alike, the source gives them in different places.

How the values were obtained:
PA-1 ovary cancer cells [1] = experiment: In-vitro anticancer MTT assay; format: cell-based, human; details: for Cytotoxic properties (IC 90) PA-1 / IC90: MTT assay, 6 h exposure, then 48 h in fresh media, 90% inhibition of cell growth; for IC90: Homo sapiens, read-out: Cytotoxic properties (IC 90) PA-1
Text: (§1) The bioactivity testing was done at two stages.

[2] = test system: MCF-7 breast cancer cells; experiment: In-vitro anticancer MTT assay; format: cell-based, human; details: for IC90: Homo sapiens, MCF7, read-out: Cytotoxic properties (IC 90) MCF-7
Text: as §1

[3] = test system: Caco-2 colon cancer cells; experiment: In-vitro anticancer MTT assay; format: cell-based, human; details: for IC90: Homo sapiens
Text: as §1

[4] = test system: KB-403 mouth cancer cells
Method: (§2) As a part of the studies on the isolation of anticancer compounds a number of taxanes were isolated from the needles of the plant Taxus wallichiana and tested for their anti-cancer properties against six human cancer cell lines in-vitro. The bioactivity testing was done at two stages. In the initial step, MTT assay was performed from which the inhibitory concentration (IC90) the concentration (μg/mL) of the taxanes required for 90% inhibition of cell growth was deduced. […] The MTT assay cannot discriminate between growth inhibition and cell death; it is an overall measurement of cell proliferation (Woerdenbag et al., 1993; J.Nat.Prod. 56 (6): 849–856). Therefore the IC90 data obtained by the MTT assay may overestimate the cell killing activity of a compound. […] Persons skilled in the art of anti-cancer drug discovery can perform both these assays.
(§3) The following six human cancer lines were procured from the Cell Repository of the National Center for Cell Sciences (NCSS) at Pune. Their corresponding ATCC No. and the organ from which they were isolated are also mentioned in Table 1 below:
(§4) Cytotoxicity testing in vitro was done by the method of Woerdenbag et al.,1993; J.Nat.Prod. 56 (6): 849–856). 2×10^3 cells/well were incubated in the 5% CO2 incubator for 24 h to enable them to adhere properly to the 96 well polysterene microplate (Grenier, Germany). Test compounds dissolved in 100% DMSO (Merck,Germany) in at least five doses were added and left for 6 h after which the compound plus media was replaced with fresh media and the cells were incubated for another 48 h in the CO2 incubator at 37° C. […] Then, 10 μl MTT [3-(4,5-dimethylthiazol-2-yl)-2,5-diphenyltetrazolium bromide; Sigma M 2128] was added, and plates were incubated at 37° C. for 4 h. 100 μl dimethyl sulfoxide (DMSO, Merck, Germany) were added to all wells and mixed thoroughly to dissolve the dark blue crystals. After a few minutes at room temperature to ensure that all crystals were dissolved, the plates were read on a SpectraMax 190 Microplate Elisa reader (Molecular Devices Inc., USA), at 570 nm. Plates were normally read within 1 h of adding the DMSO. The experiment was done in triplicate and the inhibitory concentration (IC) values were calculated as follows: % inhibition=[1-OD (570 nm) of sample well/OD (570 nm) of control well]×100. IC90 is the concentration μg/mL required for 90% inhibition of cell growth as compared to that of untreated control.

PA-1 ovary cancer cells [5] = experiment: Soft agar assay for colony formation (clonogenic assay); format: cell-based, human; details: colony formation on soft agar, compound in top soft agar; for IC90: Homo sapiens, read-out: Cytotoxic properties (IC 90) PA-1
Text: as §1

[6] = test system: MCF-7 breast cancer cells; experiment: as above; format: cell-based, human; details: compound in top soft agar; for Cytotoxic properties (IC 90) MCF-7: colony formation on soft agar; for IC90: Homo sapiens, MCF7, colony formation on soft agar, read-out: Cytotoxic properties (IC 90) MCF-7
Text: as §1

[7] = test system: Caco-2 colon cancer cells; experiment: as above; format: cell-based, human; details: compound in top soft agar; for Cytotoxic properties (IC 90) Caco-2: colony formation on soft agar; for IC90: Homo sapiens, Caco-2, colony formation on soft agar, read-out: Cytotoxic properties (IC 90) Caco-2
Text: as §1

[8] = test system: KB-403 mouth cancer cells; remark: listed apart in the source
Method: as §2
(§5) The clonogenic assay for tumor cells which determines the actual cell death was performed to determine the cytotoxic potential of test compounds. The principle of clonogenic assay is to investigate the ability of an individual cell to form a colony on a soft agar plate containing various concentrations of test compounds.
(§6) Cells not able to form colonies are considered clonogenically dead (Beekman et al 1997; J.Nat.Prod. 60(4): 325–330). The concentration of test compound resulting in […] was denoted as IC90 and was used as a parameter for cytotoxicity. The assay was performed as described previously except that the test compounds were added into the top soft agar and the cells were plated out to form colonies. Anthracycline derivative doxorubicin and microtubule depolymerization inhibitor paclitaxel (Sigma Chem. Co., St. Loius, USA) both established anticancer agents were included as standard reference drugs.

[9] = test system: COLO-320DM colon cancer cells; experiment: In-vitro anticancer MTT assay; format: cell-based, human; details: 6 h exposure, then 48 h in fresh media, 90% inhibition of cell growth; for IC90: Homo sapiens, COLO 320DM, read-out: Cytotoxic properties (IC 90) COLO-320 DM
Text: as §1

[10] = test system: WRL-68 liver cancer cells; experiment: Soft agar assay for colony formation (clonogenic assay); details: for IC90: Homo sapiens, WRL68, read-out: Cytotoxic properties (IC 90) WRL-68
Method: as §2, §5, §6

[11] = test system: WRL-68 liver cancer cells; experiment: In-vitro anticancer MTT assay; details: for IC90: Homo sapiens, WRL68, read-out: Cytotoxic properties (IC 90) WRL-68
Method: as §2, §3, §4

[12] = test system: COLO-320DM colon cancer cells; experiment: Soft agar assay for colony formation (clonogenic assay); format: cell-based, human; details: colony formation on soft agar, compound in top soft agar; for IC90: Homo sapiens, COLO 320DM, read-out: Cytotoxic properties (IC 90) COLO-320 DM
Text: as §1

[13] = MTT assay, 6 h exposure, then 48 h in fresh media, 90% inhibition of cell growth
[14] = clonogenic assay, colony formation on soft agar, compound in top soft agar
[15] = Caco-2, MTT assay, 6 h exposure, then 48 h in fresh media, 90% inhibition of cell growth, read-out: Cytotoxic properties (IC 90) Caco-2

Row | Compound | Cytotoxic properties (IC 90) Caco-2 [3, 13] [µg/mL] | Cytotoxic properties (IC 90) KB-403 [4, 13] [µg/mL] | Cytotoxic properties (IC 90) Caco-2 [7] [µg/mL] | Cytotoxic properties (IC 90) KB-403 [8, 14] [µg/mL] | IC90 (PA-1 ovary cancer cells [1]) [µg/mL] | IC90 [2, 13] [µg/mL] | IC90 [9] [µg/mL] | IC90 [10] [µg/mL] | IC90 [11] [µg/mL] | Cytotoxic properties (IC 90) KB-403 [4] [µg/mL] | IC90 (PA-1 ovary cancer cells [5]) [µg/mL] | IC90 [6] [µg/mL] | IC90 [12] [µg/mL] | IC90 [7] [µg/mL] | other results
1 | 2′-Deacetoxy austrospicatin | 1.0 | 4.5 | 3.16 | 0.44 | – | – | – | – | – | – | – | – | – | – | Cytotoxic properties (IC 90) PA-1 (PA-1 ovary cancer cells [1]): 4.0 µg/mL; Cytotoxic properties (IC 90) MCF-7 [2, 13]: 3.5 µg/mL; Cytotoxic properties (IC 90) PA-1 (PA-1 ovary cancer cells [5]): 6.3 µg/mL; Cytotoxic properties (IC 90) MCF-7 [6]: 5.63 µg/mL
2 | CC(=O)O[C@H]1C[C@H]2OC[C@@]2(OC(C)=O)[C@H]2[C@H](OC(C)=O)[C@]3(C(C)(C)O)C[C@H](O)C(C)=C3[C@@H](O)[C@H](OC(C)=O)[C@]12C [10,13,deacetyl abeobaccatin IV] | – | >10.0 | – | – | – | – | – | – | – | – | – | – | – | – | Cytotoxic properties (IC 90) MCF-7 [2]: >10.0 µg/mL
3 | CC(=O)O[C@H]1C(=O)[C@@]2(C)[C@H]([C@H](OC(=O)c3ccccc3)[C@]3(O)C[C@H](OC(=O)[C@H](O)[C@@H](NC(=O)c4ccccc4)c4ccccc4)C(C)=C1C3(C)C)[C@]1(OC(C)=O)CO[C@@H]1C[C@@H]2O [Taxol (Std), taxol, reference compound] | – | – | – | – | 0.9 (≈ 1.05 µM) | 0.85 (≈ 0.995 µM) | 0.01 (≈ 0.0117 µM) | 6.3 (≈ 7.38 µM) | 2.5 (≈ 2.93 µM) | 0.047 | 1.47 (≈ 1.72 µM) | 1.99 (≈ 2.33 µM) | 0.8 (≈ 0.937 µM) | 1.99 (≈ 2.33 µM) | IC90 [3, 15]: 0.065 µg/mL (≈ 0.0761 µM); Cytotoxic properties (IC 90) KB-403 [8]: 7.94 µg/mL
4 | C=C1[C@H]2C[C@@H]3C[C@H](OC(C)=O)C(C)=C([C@@H](OC(C)=O)[C@H](OC(C)=O)[C@]2(C)[C@@H](OC(C)=O)C[C@@H]1O)C3(C)C [2-deacetoxy decinnamoyl taxinine J] | 6.4 | 0.01 | 31.82 | 0.11 | – | – | – | – | – | – | – | – | – | – | Cytotoxic properties (IC 90) PA-1 (PA-1 ovary cancer cells [1]): 10.0 µg/mL; Cytotoxic properties (IC 90) COLO-320 DM [9]: >10.0 µg/mL; Cytotoxic properties (IC 90) WRL-68 [10, 14]: 12.58 µg/mL; Cytotoxic properties (IC 90) WRL-68 [11, 13]: 0.5 µg/mL; Cytotoxic properties (IC 90) PA-1 (PA-1 ovary cancer cells [5]): 15.84 µg/mL
5 | COc1cccc2c1C(=O)c1c(O)c3c(c(O)c1C2=O)C[C@@](O)(C(=O)CO)C[C@@H]3O[C@H]1C[C@H](N)[C@H](O)[C@H](C)O1 [Doxorubicin (Std), doxorubicin, reference compound] | – | – | – | – | 0.5 (≈ 0.92 µM) | 0.01 (≈ 0.0184 µM) | 0.08 (≈ 0.147 µM) | 3.98 (≈ 7.32 µM) | 1 (≈ 1.84 µM) | 0.06 | 10 (≈ 18.4 µM) | 0.8 (≈ 1.47 µM) | 0.1 (≈ 0.184 µM) | 0.079 (≈ 0.145 µM) | IC90 [3, 15]: 0.052 µg/mL (≈ 0.0957 µM)
6 | Acetoxy brevifoliol | – | – | – | – | – | – | – | – | – | 10.0 | – | – | – | – | Cytotoxic properties (IC 90) WRL-68 [10]: 7.0 µg/mL; Cytotoxic properties (IC 90) WRL-68 [11]: 5.0 µg/mL; Cytotoxic properties (IC 90) KB-403 [8]: 1.0 µg/mL
7 | C=C1[C@@H](OC(=O)/C=C/c2ccccc2)C[C@H](OC(C)=O)[C@]2(C)[C@@H]1C[C@@H]1C[C@H](OC(C)=O)C(C)=C([C@@H](OC(C)=O)[C@@H]2OC(C)=O)C1(C)C [2-deacetoxy taxinine J] | 0.009 | 3.5 | 0.25 | 28.18 | – | – | – | – | – | – | – | – | – | – | Cytotoxic properties (IC 90) MCF-7 [2, 13]: 6.5 µg/mL; Cytotoxic properties (IC 90) COLO-320 DM [9]: 1.0 µg/mL; Cytotoxic properties (IC 90) MCF-7 [6]: 7.94 µg/mL; Cytotoxic properties (IC 90) COLO-320 DM [12]: 10.0 µg/mL
8 | C=C1C2C[C@]3(C(C)(C)O)CC(O)C(C)=C3[C@@H](OC(=O)c3ccccc3)[C@H](OC(C)=O)[C@]2(C)[C@@H](OC(C)=O)C[C@@H]1O (some centres unmarked) [Brevifoliol, brevifoliol] | – | 0.035 | – | 0.398 | 6 (≈ 10.8 µM) | 0.004 (≈ 0.00719 µM) | 0.1 (≈ 0.18 µM) | 15.8 (≈ 28.5 µM) | > 10 | – | 7.94 (≈ 14.3 µM) | 1.99 (≈ 3.57 µM) | 1 (≈ 1.8 µM) | 0.31 (≈ 0.557 µM) | activity against PA-1 cancer cells, in words (PA-1 ovary cancer cells [1]; summary of the bioassay data): highly inhibitory; activity against MCF-7 cancer cells, in words ([2]; summary of the bioassay data): highly inhibitory; IC90 ([3]; Caco-2, read-out: Cytotoxic properties (IC 90) Caco-2): 0.85 µg/mL (≈ 1.53 µM); activity against Caco-2 cancer cells, in words ([3]; summary of the bioassay data): highly inhibitory; activity against WRL-68 liver cancer cells, in words ([11]; summary of Table 2): active against all cancer cell lines except liver cancer (WRL-68); activity against KB-403 cancer cells, in words ([4]; summary of the bioassay data): highly inhibitory
